This note sets out measurements from US12109190B2, “Urolithins as immune response enhancers” (Amazentis SA, priority 2018, dated 2024).

Assay [1] has as its system IL-10 / IL-12 (p40). The experiment in a line: Plasma cytokines (MILLIPLEX panel) in aged mice after Urolithin A in diet. The class given is in vivo. The note with it: 22 months old male C57BL/6J mice, 50 mg/kg/day in diet, 6 weeks; FIG. 6; p<0.05. The protocol: Urolithin A is admixed to AIN-93G Growing Rodent Diet (Research Diet, New Brunswick, NJ, USA) at a concentration of 0.5 g/per kg of diet, corresponding to a dose of 50 mg/kg/dy. Pellets with or without UA are given to 22 months old male C57BL/6J mice (Janvier, Saint Berthevin, France) for 6 weeks. A total of 32 mice are housed individually and randomized to 16 animals per group according to their exercise capacity. Animals who die spontaneously during the experiments are excluded from the calculations. These criteria were established before starting the experiments. Animals are euthanized after 6 weeks of treatment after an overnight fasting before collecting blood samples by the vena cava. Blood samples are centrifuged for 15 minutes at 1,500×g, and the plasma supernatant is transferred into a clean tube. Plasma is analyzed for cytokines using the MILLIPLEX MAP Mouse Cytokine/Chemokine Magnetic Bead Panel (MCYTOMAG-70K).
IL-10 is an important anti-inflammatory cytokine (Fiorentino D F, et al., IL-10 inhibits cytokine production by activated macrophages. J Immunol. 1991 Dec. 1; 147(11):3815-22; Fiorentino D F et al., IL-10 acts on the antigen-presenting cell to inhibit cytokine production by Th1 cells. J Immunol. 1991 May 15; 146(10):3444-51). […]

Assay [2] relates to haematopoietic stem cells (HSCs) and multipotent progenitor cells (MPPs). The experiment in a line: Flow cytometry of bone marrow haematopoietic progenitor cell populations from aged mice fed Urolithin A. The note with it: aged C57BL/6J mice, 50 mg/kg/day in diet, 34 weeks; for HSC population as % of total bone marrow cells and number of cells: FIG. 4, versus untreated aged animals, cell number p<0.05, 50 mg/kg/day. Type of assay: in vivo. As to the method:
To determine if Urolithin A treatment had any effects on stem cell populations, haematopoietic stem cells, (HSCs) and multipotent progenitor cells (MPPs) were isolated from aged C57BL/6J mice that received either a standard rodent diet or a diet containing Urolithin A mixed with food to reach a dosing of 50 mg/kg/day delivered to mice. Mice were treated with urolithin A starting at 16 months of age and received 34 weeks of treatment. At end of the treatment period mice were sacrificed and bone marrow collected from the femur and tibia bones. Single-cell suspensions were made following cell extraction from the bones after removal of muscle and connective tissue.
To determine the effects of Urolithin A treatment on the different progenitor cells of the haematopoietic system, the number and percentage of each progenitor cell type was determined using flow cytometry. Flow cytometry allowed the selection and quantification of cells with different patterns of protein expression on their cell surface. Using labeled monoclonal antibodies, it was possible to identify the different progenitor cell population based on their cell surface protein expression. To isolate the undifferentiated cells which would contain the progenitor population, bone marrow cells were stained with a cocktail of monoclonal antibodies against the cell surface proteins specific to the more differentiated cell types. The antibodies to these proteins, also known as lineage markers were CD3e (17A2), CD4 (GK1.5), CD8a (53.6.7), CD11b (M1/70), CD19 (1D3), Gr1 (RB6.8C5), Ter119 and NK1.1 (PK136), these were conjugated to Alexa 647 [Alexa Fluor 647 dye is a bright, far-red—fluorescent dye used as a label in, for example, fluorescence microscopy]. To discriminate the various lineage progenitor cell populations the isolated bone marrow cells were stained with monoclonal antibodies against the following progenitor cell surface protein markers containing the following labels CD34 (RAM 34)-FITC; CD135 (Flt3 A2F10)-PE; CD48 (HM48.1)-biotin+PE Texas Red Streptavidin; CD117 (ckit 2B8) PerCp-Cy5.5; Sca1 (D7)-PE-Cy7. Cell analysis of the stained cells was performed on a Becton Dickson Flow cytometer (Franklin Lake, NJ, USA) and collected data was analyzed using Flowjo™ software (an analysis platform for single-cell flow cytometry analysis). Bone marrow was isolated from three mice receiving Urolithin A treatment, and six control untreated mice.
To identify the different populations of haematopoietic progenitor cells present in the isolated bone marrow cells, the isolated bone marrow cells were selected based on their cell surface marker combinations. A so-called gating strategy was employed, in which a particular population of cells is selected (gated) based on the pattern of cell surface protein expression, and then this sub-selected population then is further examined for its cell surface protein expression. […] Uncommitted progenitor cells were examined by selecting cells that were negative for the cell surface proteins found on differentiated cells (lineage markers) described above (FIG. 2B). From this population of lineage negative cells, cells were selected that stained positive for the cells surface markers, CD117 (c-kit) and Sca1. This subpopulation of lineage negative, CD117 & Sca1 positive cells (LKS cells) contain the progenitor stem cells (FIG. 2C).
LKS cells can be further divided into four different progenitor cell types, HSC (LT-HSC), MPP 1 (ST-HSC), MPP2, and MPP3 or LMPP with decreasing levels of quiescence (FIG. 1B). The most quiescent and non-committed cells are the HSC cells. To differentiate between these cell populations in the LKS cells, Cells were examined for their expression of CD150 and CD48. The most primitive quiescent cell populations, HSC+MPP1, are positive for the cell surface marker for CD150 and negative for the cell surface marker CD48. […]

Consider `O=c1oc2cc(O)ccc2c2ccc(O)cc12` [Urolithin A], for which the “ratio of IL-10 over IL-12 (p40) in plasma” value in assay [1] is on record as “significant increase”. For the same molecule, the “HSC population as % of total bone marrow cells and number of cells” value in assay [2] was “increase”; in assay [2] (listed as urolithin A), “significant increase”. Besides, the “LSK (c-Kit+, Lin-, Sca1+) progenitor cells as % of lineage negative cells” value in assay [2] (bone marrow, example plot FIG. 2C, control 3.16%) was determined as 5.27%. Also, in assay [2] (example animal FIG. 3, untreated 53.1%), the “% of LSK cells that are HSC+MPP1 (CD150+, CD48-)” value turned out to be 61.7%. For the same molecule, the “% of HSC+MPP1 cells that are HSC (CD34-)” value in assay [2] (example animal FIG. 3, untreated 73.8%) is recorded as 81.7%. In addition, the “HSC + MPP1, % of undifferentiated cells (LSK cells)” value in assay [2] (group value n=3, untreated 40.75 ± 7.42%, p < 0.01) was 58.97 ± 11.30%.
